Reference: US20050113450A1, “Antibacterial agents” (priority 2002, published 2005)
Converted amounts (≈) assume the structure as drawn.

Tested on: SA 9218
Assay: MIC by standard agar dilution method
Assay type: cell-based
Conditions: Mueller Hinton agar, 10^4 to 10^5 cells per spot, incubated overnight at 35° C., lowest concentration that inhibits visible growth
Text: The antibacterial agents of this invention have useful activity against a variety of organisms. The in vitro activity of compounds of this invention can be assessed by standard testing procedures such as the determination of minimum inhibitory concentration (MIC) by agar dilution as described in “Approved Standard. Methods for Dilution Antimicrobial Susceptibility Tests for Bacteria That Grow Aerobically”, 3rd. ed., published 1993 by the National Committee for Clinical Laboratory Standards, Villanova, Pa., USA. The in vitro MICs of test compounds were determined by a standard agar dilution method. A stock drug solution of each analog was prepared in the preferred solvent, usually DMSO:H2O (1:3). Serial 2-fold dilutions of each sample are made using 1.0 ml aliquots of sterile distilled water. To each 1.0 ml aliquot of drug was added 9 ml of molten Mueller Hinton agar medium. The drug-supplemented agar was mixed, poured into 15×100 mm petri dishes, and allowed to solidify and dry prior to inoculation. Vials of each of the test organisms are maintained frozen in the vapor phase of a liquid nitrogen freezer. Test cultures are grown overnight at 35° C. on the medium appropriate for the organism. Colonies are harvested with a sterile swab, and cell suspensions are prepared in Trypticase Soy broth (TSB) to equal the turbidity of a 0.5 McFarland standard. A 1:20 dilution of each suspension was made in TSB. The plates containing the drug supplemented agar are inoculated with a 0.001 ml drop of the cell suspension using a Steers replicator, yielding approximately 10^4 to 10^5 cells per spot. The plates are incubated overnight at 35° C. Following incubation the Minimum Inhibitory Concentration (MIC μg/ml), the lowest concentration of drug that inhibits visible growth of the organism, was read and recorded.

| SMILES | MIC |
| --- | --- |
| Cc1ccc(S(=O)(=O)Nc2ccc(C(=O)Nc3ccc(Br)cc3C(=O)O)cc2)cc1 | 16 mg/L (≈ 32.7 µM) |
| O=C(Nc1ccc(I)cc1C(=O)O)c1ccc(S(=O)(=O)N2CCc3ccc(Cl)cc32)cc1 | 4 mg/L (≈ 6.86 µM) |
| CN(C)c1ccc(C(=O)c2ccc(C(=O)Nc3ccc(Cl)cc3C(=O)O)cc2)cc1 | 16 mg/L (≈ 37.8 µM) |
| CC(C)Oc1ccc(C(=O)Nc2ccc(Br)cc2C(=O)O)cc1 | 64 mg/L (≈ 169 µM) |
| C=CCOc1cccc(C(=O)Nc2ccc(Br)cc2C(=O)O)c1 | 8 mg/L (≈ 21.3 µM) |
| COc1ccc(C(=O)Nc2ccc(Br)cc2C(=O)O)cc1S(=O)(=O)NC1Cc2ccccc2C1 | 2 mg/L (≈ 3.67 µM) |
| Cc1ccc(C(=O)Nc2ccc(Br)cc2C(=O)O)cc1S(=O)(=O)NCCc1ccc(N)cc1 | 8 mg/L (≈ 15 µM) |
| Cc1ccc(C(=O)Nc2ccc(Br)cc2C(=O)O)cc1S(=O)(=O)N1CCN(c2cccc(C(F)(F)F)c2)CC1 | 16 mg/L (≈ 25.5 µM) |
| O=C(Nc1ccc(Br)cc1C(=O)O)c1cccc(S(=O)(=O)N2CCN(c3cccc(C(F)(F)F)c3)CC2)c1 | 16 mg/L (≈ 26.1 µM) |
| O=C(Nc1ccc(Br)cc1C(=O)O)c1cc(S(=O)(=O)NC2Cc3ccccc3C2)ccc1Br | 0.25 mg/L (≈ 0.421 µM) |
| COc1ccc(C(=O)Nc2ccc(Br)cc2C(=O)O)cc1S(=O)(=O)N1CCN(c2ccc(Cl)cc2)CC1 | 8 mg/L (≈ 13.1 µM) |
| CCN(Cc1ccncc1)S(=O)(=O)c1ccc(C)c(C(=O)Nc2ccc(Br)cc2C(=O)O)c1 | > 128 mg/L |
| COc1cc(COc2cccc(C(=O)Nc3ccc(Br)cc3C(=O)O)c2)cc(OC)c1 | 16 mg/L (≈ 32.9 µM) |
| O=C(Nc1ccc(Br)cc1C(=O)O)c1ccc(Br)c(S(=O)(=O)N2CCN(c3cccc(C(F)(F)F)c3)CC2)c1 | 8 mg/L (≈ 11.6 µM) |
| Cc1ccc(S(=O)(=O)N2CCN(c3ccc(Cl)cc3)CC2)cc1C(=O)Nc1ccc(Br)cc1C(=O)O | 32 mg/L (≈ 54 µM) |
| O=C(Nc1ccc(Br)cc1C(=O)O)c1cccc(O)c1 | 32 mg/L (≈ 95.2 µM) |
| COCCOc1cccc(C(=O)Nc2ccc(Br)cc2C(=O)O)c1 | 16 mg/L (≈ 40.6 µM) |
| CCCC(=O)C(CCC)Oc1cccc(C(=O)Nc2ccc(Br)cc2C(=O)O)c1 (centres unmarked) | 2 mg/L (≈ 4.33 µM) |
| COC(=O)C(Oc1cccc(C(=O)Nc2ccc(Br)cc2C(=O)O)c1)c1ccccc1 (centres unmarked) | 4 mg/L (≈ 8.26 µM) |
| CCOc1cccc(C(=O)Nc2ccc(Br)cc2C(=O)O)c1 | 64 mg/L (≈ 176 µM) |
| Cc1oc(-c2ccccc2)nc1CCOc1cccc(C(=O)Nc2ccc(Br)cc2C(=O)O)c1 | 32 mg/L (≈ 61.4 µM) |
| CCCC(Oc1cccc(C(=O)Nc2ccc(Br)cc2C(=O)O)c1)C(=O)OCC (centres unmarked) | 8 mg/L (≈ 17.2 µM) |
| O=C(Nc1ccc(Br)cc1C(=O)O)c1ccc(OCCOc2ccccc2)cc1 | 128 mg/L (≈ 281 µM) |
| CC(=O)NCCOc1ccc(C(=O)Nc2ccc(Br)cc2C(=O)O)cc1 | 64 mg/L (≈ 152 µM) |
| O=C(Nc1ccc(Br)cc1C(=O)O)c1cccc(OCn2nnc3ccccc32)c1 | 32 mg/L (≈ 68.5 µM) |
| CCOCCOCCOc1ccc(C(=O)Nc2ccc(Br)cc2C(=O)O)cc1 | 128 mg/L (≈ 283 µM) |
| CN(CCOc1ccc(C(=O)Nc2ccc(Br)cc2C(=O)O)cc1)Cc1ccccc1 | 128 mg/L (≈ 265 µM) |

| SMILES | MIC |
| --- | --- |
| COC(=O)COc1ccc(C(=O)Nc2ccc(Br)cc2C(=O)O)cc1 | 64 mg/L (≈ 157 µM) |
| COCCOc1ccc(C(=O)Nc2ccc(Br)cc2C(=O)O)cc1 | 128 mg/L (≈ 325 µM) |
| O=C(Nc1ccc(Br)cc1C(=O)O)c1ccc(OCc2cccnc2)cc1 | 64 mg/L (≈ 150 µM) |
| CCC#CCCOc1ccc(C(=O)Nc2ccc(Br)cc2C(=O)O)cc1 | 16 mg/L (≈ 38.4 µM) |
| CCN(Cc1ccncc1)S(=O)(=O)c1cccc(C(=O)Nc2ccc(Br)cc2C(=O)O)c1 | 32 mg/L (≈ 61.7 µM) |
| CCNS(=O)(=O)c1cccc(C(=O)Nc2ccc(Br)cc2C(=O)O)c1 | 64 mg/L (≈ 150 µM) |
| O=C(Nc1ccc(Br)cc1C(=O)O)c1cc(S(=O)(=O)N2CCN(c3cccc(C(F)(F)F)c3)CC2)ccc1Br | 8 mg/L (≈ 11.6 µM) |
| O=C(Nc1ccc(Br)cc1C(=O)O)c1cc(S(=O)(=O)Nc2ccc(F)c(Cl)c2)ccc1Br | 32 mg/L (≈ 52.7 µM) |
| Cc1ccc(S(=O)(=O)NCCc2ccc(N)cc2)cc1C(=O)Nc1ccc(Br)cc1C(=O)O | > 128 mg/L |
| Cc1ccc(S(=O)(=O)N2CCN(c3cccc(C(F)(F)F)c3)CC2)cc1C(=O)Nc1ccc(Br)cc1C(=O)O | 16 mg/L (≈ 25.5 µM) |
| O=C(Nc1ccc(Br)cc1C(=O)O)c1cc(S(=O)(=O)Nc2ccc(F)c(Cl)c2)c(F)cc1Cl | > 128 mg/L |
| O=C(Nc1ccc(Br)cc1C(=O)O)c1ccc(Br)c(S(=O)(=O)Nc2ccc3c(c2)OCCO3)c1 | 64 mg/L (≈ 105 µM) |
| O=C(Nc1ccc(Br)cc1C(=O)O)c1ccccc1F | 128 mg/L (≈ 379 µM) |
| COc1ccc(C(=O)Nc2ccc(Br)cc2C(=O)O)cc1S(=O)(=O)N1CCN(c2cccc(C(F)(F)F)c2)CC1 | 32 mg/L (≈ 49.8 µM) |
| CN(C)c1cccc(C(=O)Nc2ccc(C#N)cc2C(=O)O)c1 | 8 mg/L (≈ 25.9 µM) |
| C=Cc1ccc(C(=O)Nc2ccc(C#N)cc2C(=O)O)cc1 | 8 mg/L (≈ 27.4 µM) |
| COc1ccc(C(=O)Nc2ccc(Br)cc2C(=O)O)cc1[N+](=O)[O-] | 32 mg/L (≈ 81 µM) |
| N#Cc1ccc(NC(=O)c2ccc(-c3ccccc3)cc2)c(C(=O)O)c1 | 64 mg/L (≈ 187 µM) |
| COc1cc(C(=O)Nc2ccc(C#N)cc2C(=O)O)ccc1C | > 128 mg/L |
| COc1cc(C(=O)Nc2ccc(C#N)cc2C(=O)O)c([N+](=O)[O-])cc1OC | > 128 mg/L |
| N#Cc1ccc(C(=O)Nc2ccc(C#N)cc2C(=O)O)cc1 | > 128 mg/L |
| N#Cc1ccc(NC(=O)c2ccc3ccccc3c2)c(C(=O)O)c1 | 2 mg/L (≈ 6.32 µM) |
| N#Cc1ccc(NC(=O)c2cccc(F)c2)c(C(=O)O)c1 | 64 mg/L (≈ 225 µM) |
| CCSc1ccc(C(=O)Nc2ccc(C#N)cc2C(=O)O)cc1 | 2 mg/L (≈ 6.13 µM) |
| COc1ccc(C(=O)Nc2ccc(C#N)cc2C(=O)O)cc1 | 16 mg/L (≈ 54 µM) |
| CCN(CC)C(=O)c1c(F)ccc(F)c1C(=O)Nc1ccc(C#N)cc1C(=O)O | > 128 mg/L |
| CCOc1ccc(C(=O)Nc2ccc(C#N)cc2C(=O)O)cc1OCC | 128 mg/L (≈ 361 µM) |

Results, then the compound that gave them:

| MIC | SMILES |
| --- | --- |
| 16 mg/L (≈ 39.4 µM) | CCCCCOc1ccc(C(=O)Nc2ccc(Br)cc2C(=O)O)cc1 |
| 64 mg/L (≈ 123 µM) | Nc1ccc(CCNS(=O)(=O)c2ccc(C(=O)Nc3ccc(Br)cc3C(=O)O)cc2)cc1 |
| 16 mg/L (≈ 37.5 µM) | O=C(Nc1ccc(Br)cc1C(=O)O)c1ccc(OCc2ccccc2)cc1 |
| 1 mg/L (≈ 1.94 µM) | O=C(Nc1ccc(Br)cc1C(=O)O)c1cccc(S(=O)(=O)NC2Cc3ccccc3C2)c1 |
| 0.25 mg/L (≈ 0.472 µM) | Cc1ccc(C(=O)Nc2ccc(Br)cc2C(=O)O)cc1S(=O)(=O)NC1Cc2ccccc2C1 |
| > 128 mg/L | COc1ccc(C(=O)Nc2ccc(Br)cc2C(=O)O)cc1S(=O)(=O)NCc1ccc(N(C)C)cc1 |
| 32 mg/L (≈ 95.2 µM) | O=C(Nc1ccc(Br)cc1C(=O)O)c1ccc(O)cc1 |
| 8 mg/L (≈ 17.3 µM) | Cc1ncsc1CCOc1cccc(C(=O)Nc2ccc(Br)cc2C(=O)O)c1 |
| 32 mg/L (≈ 71.5 µM) | O=C(Nc1ccc(Br)cc1C(=O)O)c1cccc(OCCN2CCCC2=O)c1 |
| 32 mg/L (≈ 70.7 µM) | CCOCCOCCOc1cccc(C(=O)Nc2ccc(Br)cc2C(=O)O)c1 |
| 32 mg/L (≈ 78.4 µM) | COC(=O)COc1cccc(C(=O)Nc2ccc(Br)cc2C(=O)O)c1 |
| 32 mg/L (≈ 74.9 µM) | O=C(Nc1ccc(Br)cc1C(=O)O)c1cccc(OCc2cccnc2)c1 |
| 16 mg/L (≈ 38.1 µM) | O=C(Nc1ccc(Br)cc1C(=O)O)c1cccc(OCC2CCOC2)c1 (centres unmarked) |
| 64 mg/L (≈ 176 µM) | CCOc1ccc(C(=O)Nc2ccc(Br)cc2C(=O)O)cc1 |
| 8 mg/L (≈ 17.5 µM) | COc1cccc(COc2ccc(C(=O)Nc3ccc(Br)cc3C(=O)O)cc2)c1 |
| 64 mg/L (≈ 136 µM) | COC(COc1ccc(C(=O)Nc2ccc(Br)cc2C(=O)O)cc1)c1ccccc1 (centres unmarked) |
| 64 mg/L (≈ 123 µM) | Nc1ccc(CCNS(=O)(=O)c2cccc(C(=O)Nc3ccc(Br)cc3C(=O)O)c2)cc1 |
| 64 mg/L (≈ 227 µM) | N#Cc1ccc(NC(=O)c2ccc(O)cc2)c(C(=O)O)c1 |
| > 128 mg/L | COc1ccc(C(=O)Nc2ccc(Br)cc2C(=O)O)cc1S(=O)(=O)Nc1ccc(Cl)c2ccccc12 |

| MIC | SMILES |
| --- | --- |
| 2 mg/L (≈ 3.45 µM) | O=C(Nc1ccc(Br)cc1C(=O)O)c1cc(S(=O)(=O)N2CCc3ccccc32)ccc1Br |
| 64 mg/L (≈ 108 µM) | COc1ccc(C(=O)Nc2ccc(Br)cc2C(=O)O)cc1S(=O)(=O)Nc1ccc(N2CCOCC2)cc1 |
| 128 mg/L (≈ 214 µM) | CCN(Cc1ccncc1)S(=O)(=O)c1cc(C(=O)Nc2ccc(Br)cc2C(=O)O)ccc1Br |
| 16 mg/L (≈ 37.7 µM) | O=C(Nc1ccc(Br)cc1C(=O)O)c1ccc(/N=N/c2ccccc2)cc1 |
| > 128 mg/L | N#Cc1ccc(NC(=O)c2cccc3cccc(C=O)c23)c(C(=O)O)c1 |
| 2 mg/L (≈ 4.49 µM) | CC(C)CN1C(=O)c2ccc(C(=O)Nc3ccc(Br)cc3C(=O)O)cc2C1=O |
| 8 mg/L (≈ 16.9 µM) | O=C(Nc1ccc(Br)cc1C(=O)O)c1ccc2c(c1)C(=O)N(CC1CCCO1)C2=O (centres unmarked) |
| 64 mg/L (≈ 180 µM) | COc1cc(C(=O)Nc2ccc(C#N)cc2C(=O)O)cc(OC)c1OC |
| 128 mg/L (≈ 317 µM) | CN1C(=O)c2ccc(C(=O)Nc3ccc(Br)cc3C(=O)O)cc2C1=O |
| 16 mg/L (≈ 40.2 µM) | CCOc1cc(C(=O)Nc2ccc(C#N)cc2C(=O)O)cc(OCC)c1OCC |
| 16 mg/L (≈ 47.4 µM) | CCN(CC)c1ccc(C(=O)Nc2ccc(C#N)cc2C(=O)O)cc1 |
| 64 mg/L (≈ 196 µM) | COc1ccc(C(=O)Nc2ccc(C#N)cc2C(=O)O)cc1OC |
| 16 mg/L (≈ 49.3 µM) | CCCOc1ccc(C(=O)Nc2ccc(C#N)cc2C(=O)O)cc1 |
| 16 mg/L (≈ 51.6 µM) | N#Cc1ccc(NC(=O)c2ccc3c(c2)OCO3)c(C(=O)O)c1 |
| 32 mg/L (≈ 103 µM) | CCOc1ccc(C(=O)Nc2ccc(C#N)cc2C(=O)O)cc1 |
| > 128 mg/L | COc1ccc(CCOc2ccc(C(=O)Nc3ccc(Br)cc3C(=O)O)cc2)cc1 |
| > 128 mg/L | N#Cc1ccc(NC(=O)c2cccc3c2C(=O)c2ccccc2-3)c(C(=O)O)c1 |
| 32 mg/L (≈ 68 µM) | COc1ccc(CCOc2cccc(C(=O)Nc3ccc(Br)cc3C(=O)O)c2)cc1 |
| 4 mg/L (≈ 11.4 µM) | CCCCCOc1ccc(C(=O)Nc2ccc(C#N)cc2C(=O)O)cc1 |
